Key:
Staphylococcus aureus = assay: One-minute kill in bacterial culture (colony counts); assay type: cell-based; settings: for CFU/ml (1 minute kill): TSB + 20% BCS, 10^7 CFU inoculum; for decrease in CFU: 500 micrograms per milliliter, 1 minute
Description: Various concentrations of chlorhexidine diacetate (“CHA”) and/or triclosan (“TC”) were dispensed in 1.0 ml trypticase soy broth (“TSB”) containing 20 percent bovine calf serum (“BCS”) and inoculated with 10^7 colony-forming units (“CFU”) of Staphylococcus aureus. After one minute, the cultures were diluted with drug-inactivating medium (1:100 dilution in LTSB drug inactivating medium, which is 5% Tween 80, 2% lecithin, 0.6% sodium oleate, 0.5% sodium thiosulfate, 0.1% protease peptone and 0.1% tryptone) and 0.2 ml of the diluted culture was subcultured on a trypticase soy agar plate for the determination of colony counts.

Solubility observation = assay type: physicochemical; settings: water or alcohol
From the text: When relatively soluble chlorhexidine salts such as chlorhexidine acetate (CHA) were used to impregnate catheters, the release was undesirably rapid. We investigated the use of CHX as a substitute for CHA.

Row | Compound | CFU/ml (1 minute kill) (Staphylococcus aureus; 500 μg/ml) | CFU/ml (1 minute kill) (Staphylococcus aureus; 1000 μg/ml) | CFU/ml (1 minute kill) (Staphylococcus aureus; 2000 μg/ml) | decrease in CFU (Staphylococcus aureus) | solubility (Solubility observation) | CFU/ml (1 minute kill) (Staphylococcus aureus; 250 μg/ml)
1 | CC(=O)O.CC(=O)O.NC(=N\CCCCCC/N=C(N)/N=C(\N)Nc1ccc(Cl)cc1)/N=C(\N)Nc1ccc(Cl)cc1 [CHA, chlorhexidine diacetate] | 6.0 × 10^5 CFU/ml | 5.0 × 10^4 CFU/ml | 2.1 × 10^3 CFU/ml | approximately 17 fold |  | 
2 | N=C(NCCCCCCNC(=N)NC(=N)Nc1ccc(Cl)cc1)NC(=N)Nc1ccc(Cl)cc1 [CHX, chlorhexidine free base] |  |  |  |  | not soluble | 
3 | Oc1cc(Cl)ccc1Oc1ccc(Cl)cc1Cl [TC, 2,4,4′-trichloro-2′-hydroxydiphenyl ether] | 4.2 × 10^3 CFU/ml |  |  | approximately 2400 fold |  | 2.0 × 10^5 CFU/ml

Source: patent US6872195B2, “Chlorhexidine-containing medical devices” (The Trustees of Columbia University in the City of New York, priority 1996, dated 2005)
